From patent US10590116B2, “3-indolyl furanoids as inhibitors of matrix metalloproteinase-9 for prevention of gastric ulcer and other inflammatory diseases” (Council of Scientific & Industrial Research, priority 2017, dated 2020)
Where “and” joins values, the source holds several entries; their conditions need not be identical. Identical values can stand only once.

Assays:
[1] = tested on: indomethacin-induced acute gastric ulcers; assay: Protection studies of gastric ulceration in vivo (indomethacin-induced acute gastric ulcer, ulcer index); set-up: species or system Balb/c mice; details: for inhibition in ulcer index: 4 h
Description: Animal experiments were carried out using Balb/c mice (20-25 g). Animals were anesthetized with ketamine (12 mg/kg b.w.) prior to cervical dislocation. Control and experimental animals were fasted for 6 hr with free access to water.
Balb/c mice (20-25 g) bred in-house with free access to food and water was used for all experiments. Experiments were designed to minimize animal suffering and to use the minimum number associated with valid statistical evaluation. Animals were anesthetized with ketamine (12 mg/kg b.w.) followed by cervical dislocation. Animal experiments were carried out following the guidelines of animal ethics committee of the institute. Control and experimental animals were fasted for 6 h with free access to water.
Before ulcer induction, animals of both control and experimental groups were kept separately in standard controlled conditions. Acute gastric ulcers were induced by oral administration of indomethacin at a dose of 80 mg/kg b.w. The control group received the vehicle only (olive oil), whereas the experimental group received indomethacin for gastric ulceration. After 4 h, the animals were sacrificed and gastric lesions in the fundic stomach were scored and expressed as obtained by counting the number of red bands/dots as follows: 0=no pathology; 1=a small pinhead ulcer spot; and 2-5=a band like lesion of 2-5 mm length. Total score become ˜50 when ulcer is severe. The sum of the total scores as divided by the number of animals was expressed as the mean ulcer index. Formulations were administered orally 30 min prior to indomethacin treatment to check the gastroprotective effect. Among all the chemical compositions of 3-indolyl furanoids synthesized (table 1), compounds 1, 2, 5, 8, 9 and 12 were tested for prevention studies against gastric inflammation in vivo.

[2] = tested on: protein carbonyl; assay: Measurement of protein carbonyl in gastric tissue homogenate; format: in vivo; details: 50 mg/kg bw, ulcerated mice
Description: Protein carbonyl groups are considered as biomarkers of oxidative stress. Protein oxidation was measured as carbonyl content in the low speed supernatant of the gastric tissue homogenate. The stomach from control, stress ulcerated, and compound 5 treated (50 mg/kg bw) mice were homogenized in 50 mM sodium phosphate buffer pH 7.4 in a Potter-Elvehjem glass homogenizer for 2 min to get 20% homogenate. After centrifugation at 600 g for 10 min, the proteins from 1.0 mL of the supernatant were precipitated with 10% trichloroacetic acid and allowed to react with 0.5 mL of 10 mM 2,4-dinitrophenyl hydrazine for 1 h. After precipitation with 20% trichloroacetic acid, proteins were washed thrice with a mixture of ethanol-ethyl acetate (1:1), dissolved in 1.0 mL of a solution containing 6 M guanidine HCl in 20 mM potassium phosphate adjusted to pH 2.3 with trifluroacetic acid, and centrifuged. The absorbance of the supernatant was read at 362 nm for carbonyl content (E=22,000/M/cm).
The fundic stomach homogenate was used for measurement of protein carbonyl formation as nmol/mg protein.

[3] = target: T1, MMP-9 (Mus musculus, UniProt P41245); assay: Gelatin zymography of gastric tissue extract, MMP-9; format: in vivo, mice; details: pretreatment before indomethacin
T1 construct: from tissue; host or cells: mouse stomach (gastric tissue) PBS / Triton X-100 extracts
Description: The whole stomach (including fundic, body and pyloric parts) was washed with saline and used for extraction. Stomach except connective tissue layer (named as gastric tissue) were suspended in 10 mM phosphate buffer saline (PBS) containing protease inhibitors, minced and incubated for 10 min at 4° C. After centrifugation at 12,000 g for 15 min, the supernatant was collected as PBS extracts. The pellet was then extracted in lysis buffer (10 mM Tris-HCl pH 8.0, 150 mM NaCl, 1% Triton X-100 and protease inhibitors) and centrifuged at 12,000 g for 15 min to obtain TX extracts. Both PBS and TX extracts were preserved at −70° C. and used in future studies. Proteins were estimated either by Lowry method or by Bradford assay.
For the analysis of MMP-9 activity, tissue extracts were electrophoresed in 8% SDS-PAGE containing 1 mg/mL gelatin under nonreducing conditions. Equal amounts of tissue extracts (70 μg of total protein) were loaded in all the lanes. […] Quantification of zymographic bands was performed using densitometry linked to proper software (Lab Image, Kapelan Gmbh, Leipzig, Germany). […]
Tissue extracts were electrophoresed in SDS-PAGE containing gelatin under nonreducing conditions. […] Gelatinolytic activity came as negative staining and was quantified by Lab Image software.

[4] = target: T2, purified MMP-9 (Homo sapiens, UniProt P14780); assay: IC50 on purified MMP-9 using gelatin zymography; format: biochemical, human (IPF patients); details: purified MMP-9, gelatin zymography, three independent experiments
T2 construct: from tissue; host or cells: bronchoalveolar lavage fluid of IPF patients
Description: MMP-9 was purified from the bronchoalveolar lavage fluid (BALF) of idiopathic pulmonary fibrosis (IPF) patients as these fluids contain enormous amounts of MMP-9. All purification procedures were carried out at 4° C. Briefly, BALF containing protease inhibitor cocktail (EDTA Free) were centrifuged at 12,000 g for 15 min, and the supernatant was collected and processed for protein purification. […] The enzyme was eluted with 7% dimethyl sulfoxide diluted in the same buffer, and the fractions containing enzyme protein as determined by absorbance at 280 nm were pooled and immediately dialyzed against equilibrating buffer at 4° C. They were then concentrated using Amicon Ultra-15 centrifugal filter devices and protein concentration was determined by Bradford assay. These samples were screened to confirm the presence of MMP-9 and absence of MMP-2 by gelatin zymography and stored at −70° C.
The inventors address the IC50 value of compound 5 towards MMP-9 binding. To evaluate the IC50 value of compound 5 on MMP-9 activity, equal amount of purified MMP-9 was incubated with various concentrations of compound 5 followed by electrophoresis in 8% SDS-PAGE containing 1 mg/mL gelatin under nonreducing conditions.

T2 sequence (P14780 94-707): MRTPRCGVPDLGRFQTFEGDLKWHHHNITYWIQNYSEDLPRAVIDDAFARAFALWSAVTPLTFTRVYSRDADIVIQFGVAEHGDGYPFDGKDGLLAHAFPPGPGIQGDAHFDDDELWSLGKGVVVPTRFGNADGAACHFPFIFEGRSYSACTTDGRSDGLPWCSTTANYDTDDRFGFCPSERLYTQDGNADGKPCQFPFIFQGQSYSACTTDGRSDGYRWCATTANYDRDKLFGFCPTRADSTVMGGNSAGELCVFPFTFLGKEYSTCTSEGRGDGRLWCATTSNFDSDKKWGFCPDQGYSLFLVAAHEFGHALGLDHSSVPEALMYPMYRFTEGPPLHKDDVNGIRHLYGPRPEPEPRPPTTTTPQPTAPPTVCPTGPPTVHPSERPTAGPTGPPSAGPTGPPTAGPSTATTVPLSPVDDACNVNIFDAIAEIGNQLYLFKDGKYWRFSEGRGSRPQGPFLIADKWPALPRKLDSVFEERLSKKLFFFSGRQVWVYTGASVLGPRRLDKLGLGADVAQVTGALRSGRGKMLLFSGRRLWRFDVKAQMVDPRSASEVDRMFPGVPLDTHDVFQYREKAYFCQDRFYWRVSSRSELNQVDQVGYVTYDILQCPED
T1 sequence (P41245 108-730): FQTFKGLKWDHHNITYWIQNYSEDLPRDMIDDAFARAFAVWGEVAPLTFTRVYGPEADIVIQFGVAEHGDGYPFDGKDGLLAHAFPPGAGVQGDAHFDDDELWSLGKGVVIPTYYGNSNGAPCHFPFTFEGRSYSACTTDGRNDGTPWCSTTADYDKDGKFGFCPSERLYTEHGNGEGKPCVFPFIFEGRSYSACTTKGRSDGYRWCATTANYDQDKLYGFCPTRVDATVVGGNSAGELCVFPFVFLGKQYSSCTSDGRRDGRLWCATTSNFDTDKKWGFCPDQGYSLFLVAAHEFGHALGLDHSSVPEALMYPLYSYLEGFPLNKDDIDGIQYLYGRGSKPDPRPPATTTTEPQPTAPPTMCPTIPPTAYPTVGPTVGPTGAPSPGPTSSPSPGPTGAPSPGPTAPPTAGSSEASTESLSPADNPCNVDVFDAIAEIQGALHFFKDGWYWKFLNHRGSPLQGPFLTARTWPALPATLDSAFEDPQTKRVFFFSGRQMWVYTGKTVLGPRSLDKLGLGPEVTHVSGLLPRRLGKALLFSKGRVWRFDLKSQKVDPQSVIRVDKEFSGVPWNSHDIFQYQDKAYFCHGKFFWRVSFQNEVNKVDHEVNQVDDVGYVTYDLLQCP

SMILES: COc1cccc2[nH]cc(-c3cc(-c4ccccc4)oc3-c3ccccc3)c12 [compound 5, 4-methoxy-3-(2,5-diphenylfuran-3-yl)-1H-indole]
- inhibition in ulcer index ([1]; 10 mg/kg bw oral prior to indomethacin 80 mg/kg): 40%
- inhibition in ulcer index ([1]; 25 mg/kg bw oral prior to indomethacin 80 mg/kg): 80%
- inhibition in vivo at 50 mg/kg ([1]; Mus musculus, 50 mg/kg body weight oral in olive oil, indomethacin 80 mg/kg, scored after 4 h, Balb/c mice): 95%
- Protein carbonylation [2]: 1.58±0.18 nmol/mg protein
- Protein carbonylation ([2]; listed as Compound 5): 1.58 ± 0.18 nmol/mg protein
- MMP-9 activity in gastric tissue extract [3]: inhibits MMP-9 activity in gastric mucosa
- MMP-9 activity in gastric tissue extract ([3]; listed as Compound 5): inhibited MMP-9 activity very significantly
- IC50 [4]: ~50 µM and 50 µM
